Target: T1, Glutathione S-transferase omega 1 (mGstO1) (Mus musculus, UniProt O09131)
T1 sequence (O09131 2-240): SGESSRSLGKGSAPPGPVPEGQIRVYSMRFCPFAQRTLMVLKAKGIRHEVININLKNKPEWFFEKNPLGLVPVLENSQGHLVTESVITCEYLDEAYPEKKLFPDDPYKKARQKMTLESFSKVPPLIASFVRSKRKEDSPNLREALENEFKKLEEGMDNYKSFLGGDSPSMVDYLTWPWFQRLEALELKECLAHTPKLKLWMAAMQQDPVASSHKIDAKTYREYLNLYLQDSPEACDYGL
Type: biochemical

N[C@@H](CCC(=O)N[C@@H](CSCC(=O)c1ccc([N+](=O)[O-])cc1)C(=O)NCC(=O)O)C(=O)O [4-NPG, 4-nitrophenacyl glutathione]
spectrophotometric assay at 305 nm of 4-NPG reduction to 4-nitroacetophenone by: 10 U/mg
